# Experimental data as given in patent US6753005B1, “Method for tissue perfusion” (Direct Therapeutics, Inc., priority 1997, dated 2004).
# Read-outs that look alike come from different tables or passages of the source. Marks after values point to notes of the source that are not given here.
# Assays:
# [1] = tested on: normal canine prostate; experiment: Normal canine prostate model, intraprostatic injection
# Experimental: Random-source adult male canines were used in this experiment.
# Body surface area (m2) was calculated for each animal using published tables.
# On the day of surgery, the animals were preanesthetized with acepromazine (0.22 mg/kg) and atropine (0.05 mg/kg) intramuscularly. General anesthesia was induced with intravenous thiopental sodium (20-25 mg/kg) and, following orotracheal intubation, was maintained with a 0.5-2.0% halothane-oxygen mixture given through a semi-closed circle system. Perioperative antibiotics consisted of intravenous gentamicin (3 mg/kg) on the day of surgery and daily intramuscular gentamicin (3 mg/kg) for seven days following surgery.
# In each animal, an 8 French urinary catheter was passed per urethra into the bladder, and the bladder was filled with normal saline. A diagnostic Aloka Echo SSD650 ultrasound machine with a UST 664 5/7.5 MHZ biplanar linear array transrectal probe (Wallingford, Conn.) was used to determine the maximal axial (transverse) width, height, and midline sagittal (longitudinal) length. The length was measured in the midline from the distal most aspect of the apex to the cephalad most portion of the gland. The volume was then determined using the following formula: length×width×½ height. A lower abdominal midline incision was created, and the peritoneal cavity was entered. The bladder and prostate were exposed and the periprostatic fat was carefully dissected off of the base of the gland. Using TRUS imaging of the prostate as well as direct visualization through the peritoneotomy a three inch 20 gauge spinal needle connected to a standard 10-cc luer-lock syringe containing the appropriate aliquot for injection was guided into the base of the right lobe of the prostate. The needle tip was localized within the prostatic parenchyma with ultrasound guidance and appropriately positioned.
# Animals were randomly divided into subgroups. Animals A1 and A2 received a volume of dehydrated ethanol equal to 100% of the measured prostate volume while the remaining animals received a volume of 98% dehydrated ethanol equal to 50% of the total gland volume as determined by TRUS imaging. The animals received escalating doses of Carmustine dissolved in dehydrated ethanol: A1 and A2 2 mg/ml; B1 and B2, 5 mg/ml; C1 and C2 12.5 mg/ml; D1 and D2 18 mg/ml; and E1 and E2, 25 mg/ml. All animal subgroups were injected on separate days under general anesthesia through a midline peritoneotomy approach using TRUS guidance for needle placement. The needle was initially positioned at the ventral aspect of the apex of the gland and then withdrawn from apex to base during the injection. The needle was then repositioned toward the dorsal aspect of the gland at the apex and withdrawn toward the base during the injection so that as much of the parenchyma could be covered as possible.
# Fourteen days following injection all animals underwent repeat TRUS imaging of the prostate gland under general anesthesia and were then euthanized by exsanguination under deep general anesthesia. The bladders and prostates were excised enbloc and fixed in formalin. If there was any evidence of perirectal inflammation or suspicion of pathology a section of the rectum was removed for pathologic examination. After adequate tissue fixation in formalin, the prostate glands were step sectioned and the volume of the prostate parenchyma affected (cm3) was calculated and quantitated based on the measured length, height and thickness of individual step sections of the gland. The volumes were then added together resulting in a quantification of the total parenchymal volume affected on a prostate gland for prostate gland basis. The tissue was then submitted for histopathologic interpretation.
# [2] = tested on: Walker 256 tumors; details: for Tumor Free at Time of Death: number of animals
# Experimental: Tumor fragments derived from serially transplanted Walker 256 tumors were prepared and transplanted subcutaneously into female Harlan Sprague Dawley rats. Once the tumors reached appropriate size, animals were randomized into treatment groups of 5 or 6 animals and an untreated control group of 10 animals. Tumor volume for each animal was calculated using the formula: volume=(I×w2)/2. Observations included daily visual observation of each animal's general health, tumor measurements three times per week and weight every week. These measurements continued until: efficacy was apparent, the animal was terminal, the tumor became necrotic, tumor interfered with the animal's ability to eat or drink, or ten weeks beyond commencement of dosing.
# Fifty rats bearing tumors ranging from 550 to 1634 mm^3 were randomly divided into eight treatment groups and 2 control groups. The following treatments were respectively administered to the eight treatment groups: […]
# [3] = all animals, 14 days after injection
# [4] = carmustine 5 mg/ml ethanol, 50% of prostate volume, prostate volume 8.42, 14 days
# [5] = carmustine 5 mg/ml ethanol, 50% of prostate volume, prostate volume 9.8, 14 days
# [6] = carmustine 12.5 mg/ml ethanol, 50% of prostate volume, prostate volume 4.36, 14 days
# [7] = carmustine 12.5 mg/ml ethanol, 50% of prostate volume, prostate volume 20.16, 14 days
# [8] = carmustine 18 mg/ml ethanol, 50% of prostate volume, prostate volume 27.75, 14 days
# [9] = carmustine 18 mg/ml ethanol, 50% of prostate volume, prostate volume 37.2, 14 days
# [10] = carmustine 25 mg/ml ethanol, 50% of prostate volume, prostate volume 22.14, 14 days
# [11] = Group VI: carmustine 3.3 mg/ml in absolute ethanol, 100% tumor volume
smiles,measurement,setting,value
"O=NN(CCCl)C(=O)NCCCl [Carmustine, carmustine]",relation of carmustine concentration to volume of tissue affected,"[1]; 2-25 mg/ml carmustine in dehydrated ethanol, 14 days",highest concentrations of carmustine were associated with the largest volumes of tissue affected
same,rectal injuries,[1]; all animals,no rectal injuries
same,findings in prostatic parenchyma (TRUS and step sections),[1]; [3],hemorrhagic and coagulative necrosis
same,findings in the urethra,[1]; [3],"submucosal hemorrhage, mucosal erosion and inflammation"
same,Periprostatic Tissue Involvement,"[1]; carmustine 5 mg/ml ethanol, 50% of prostate volume, prostate volume 8.42",Marked fat necrosis
same,Volume Affected Left,[1]; [4],0.68 cc^3
same,Volume Affected PU (periurethral),[1]; [4],0 cc^3
same,Volume Affected Right,[1]; [4],1.73 cc^3
same,Periprostatic Tissue Involvement,"[1]; carmustine 5 mg/ml ethanol, 50% of prostate volume, prostate volume 9.8",Cystic necrosis R
same,Volume Affected Left,[1]; [5],1.61 cc^3
same,Volume Affected PU (periurethral),[1]; [5],2.51 cc^3
same,Volume Affected Right,[1]; [5],0.85 cc^3
same,Periprostatic Tissue Involvement,"[1]; carmustine 12.5 mg/ml ethanol, 50% of prostate volume, prostate volume 4.36",Moderate fat necrosis
same,Volume Affected PU (periurethral),[1]; [6],0.62 cc^3
same,Volume Affected left + right,[1]; [6],1.8 cc^3
same,Periprostatic Tissue Involvement,"[1]; carmustine 12.5 mg/ml ethanol, 50% of prostate volume, prostate volume 20.16",Minimal fat necrosis
same,Volume Affected Left,[1]; [7],1.8 cc^3
same,Volume Affected PU (periurethral),[1]; [7],0 cc^3
same,Volume Affected Right,[1]; [7],1.4 cc^3
same,Periprostatic Tissue Involvement,"[1]; carmustine 18 mg/ml ethanol, 50% of prostate volume, prostate volume 27.75",Marked fat necrosis
same,Volume Affected Left,[1]; [8],8.35 cc^3
same,Volume Affected PU (periurethral),[1]; [8],1.2 cc^3
same,Volume Affected Right,[1]; [8],12.31 cc^3
same,Periprostatic Tissue Involvement,"[1]; carmustine 18 mg/ml ethanol, 50% of prostate volume, prostate volume 37.2",Marked fat necrosis
same,Volume Affected Left,[1]; [9],11.76 cc^3
same,Volume Affected PU (periurethral),[1]; [9],3.84 cc^3
same,Volume Affected Right,[1]; [9],9.73 cc^3
same,Periprostatic Tissue Involvement,"[1]; carmustine 25 mg/ml ethanol, 50% of prostate volume, prostate volume 22.14",Mild fat necrosis
same,Volume Affected Left,[1]; [10],7.5 cc^3
same,Volume Affected PU (periurethral),[1]; [10],0 cc^3
same,Volume Affected Right,[1]; [10],4.8 cc^3
same,Periprostatic Tissue Involvement,"[1]; carmustine 25 mg/ml ethanol, 50% of prostate volume, prostate volume 32.64",Large pelvic abscess
same,Volume Affected left + right + periurethral,"[1]; carmustine 25 mg/ml ethanol, 50% of prostate volume, prostate volume 32.64, 14 days",32.64** cc^3
same,selective effect on tumor cells,[2]; 100% ethanol and 3.3 mg/ml carmustine,selectively kill tumor cells
same,Complete Regressors/Total,[2]; [11],4/5
same,local findings in the area of the tumor,[2]; [11],"no evidence of scar, hair loss or residual redness"
same,Mean Days to Tumor Size 5000 mm^3 after treatment,"[2]; Group VI: carmustine 3.3 mg/ml in absolute ethanol, 100% tumor volume, 2 animals",29.5 days
same,Tumor Free at Time of Death,[2]; [11],3
same,Tumor Free at Time of Death,"[2]; Group VI: carmustine 3.3 mg/ml in absolute ethanol, 100% tumor volume, listed as carmustine",three
